Experimental data published in patent US9988380B2, “Quorum sensing inhibitors” (priority 2013, dated 2018).

Key:
[1] = tested on: LasR-controlled GFP expression in P. aeruginosa PAO1 lasB-gfp(ASV) strain; assay: P. aeruginosa QS inhibition assay with lasB-gfp(ASV) reporter strain; assay type: cell-based, Pseudomonas aeruginosa; conditions: for effect on cell growth / inhibition of LasR-controlled GFP expression: P. aeruginosa lasB-gfp(ASV) strain; for effect on cell growth: OD600; for inhibition of LasR-controlled GFP expression: 0.78125-50 μM
Description: P. aeruginosa QS inhibition assays. Test compounds were dissolved in 100% DMSO and mixed with ABTGC media, after which they were added to the first column of wells of a 96-well microtitre plate (Nunc) to give a final concentration of 100 μM in a final volume of 200 μl. 100 μL of ABTGC media was then added to the remaining wells in the plate and serial two-fold dilutions of the inhibitors were done by adding 100 μL of the preceding inhibitor-containing well to the subsequent one. The final column was left without inhibitor as a control. Next, an overnight culture of P. aeruginosa lasB-gfp(ASV) strain, grown in LB medium at 37° C. with shaking, was diluted to an optical density (OD) at 600 nm of 0.2, and 100 μl of bacterial suspension was added to each well of the microtitre plate. […] The microtitre plate was incubated at 37° C. in a Tecan Infinite 200 Pro plate reader (Tecan Group Ltd., Männedorf, Switzerland). GFP fluorescence (excitation at 485 nm, emission at 535 nm) and cell density (OD600) measurements were collected at 15 min intervals for at least 14 h. The P. aeruginosa Rhl and Pqs inhibition assays were performed in a similar manner to the LasR inhibition assay.
Inhibition Assay with the P. aeruginosa lasB-gfp(ASV) strain. In the preliminary screen, the 22 selected QSI candidates were screened for their ability to inhibit QS-controlled green fluorescent protein (GFP) expression in the P. aeruginosa lasB-gfp(ASV) strain. Elastase (encoded by the lasB gene) is a virulence factor that is controlled by LasR and therefore a good indicator for LasR activity. […] For ease of identification, each compound was designated a short compound identification code based on its well position in the shipment in place of its standard IUPAC name.
The dose-response curves of these 5 QSI candidates when incubated with the P. aeruginosa PAO1 lasB-gfp(ASV) strain are shown in FIG. 3. GFP expression, which was measured in relative fluorescence units, was normalized by dividing the GFP value by the corresponding OD600 value measured at that time-point. ‘Control’ refers to the PAO1 strain grown without the presence of QSI, and as expected, it had the highest GFP per OD values. For these five compounds, dose-dependent inhibition of lasB-gfp expression was observed, i.e. the higher the concentration of QSI that was present, the greater the inhibition of gfp expression.
IC50 Value Comparisons of the Five QSI Candidates. The slope of the curve for each QSI was calculated based on its respective dose-response curves (from FIG. 3) and plotted against the log inhibitor concentration. The slope is indicative of the biosynthesis rate of GFP due to AHL induction. The half maximal inhibitory concentrations (IC50) of the five QSI candidates were calculated using the Graphpad Prism 6 software package (GraphPad Software Inc., CA, USA).

rhlA-gfp(ASV) expression = assay: Inhibition of the Rhl QS system, rhlA-gfp(ASV) reporter in PAO1 wild-type and lasR mutant; assay type: cell-based, P. aeruginosa
Description: (§1) Inhibition of the Rhl and PQS QS systems in wild-type PAO1 and PAO1 lasR mutant. Wild-type P. aeruginosa PAO1 strains harboring either the rhlA-gfp(ASV) reporter or the pqsA-gfp(ASV) reporter, and a P. aeruginosa PAO1 lasR mutant harboring either the rhlA-gfp(ASV) reporter or the pqsA-gfp(ASV) reporter were used for this experiment (Refer to FIG. 11 for strain information). Overnight cultures of these four strains were diluted 100-fold in ABTGC media within 96-well microtitre plates to a final volume of 200 μL per well. Each of the five QSIs was added in triplicate to a final concentration of 50 μM. 0.5% DMSO was used as a negative control. The microtitre plate was incubated at 37° C. in a Tecan Infinite 200 Pro plate reader where GFP and OD600 readings were measured at 15 min intervals.
(§2) Effect of QSIs on Rhl and Pqs Quorum-Sensing Systems. In order to address the problem of the specificity of present compounds, the five identified QSI compounds were tested to see if they had any effect on the rhl and pqs systems. The five QSIs were tested against a PAO1 wild-type and a PAO1 lasR mutant harboring either the rhlA-gfp (ASV) bioreporter or the pqsA-gfp (ASV) bioreporter. The rhlA system is dependent on the RhlR/I system. By doing so, we were able to determine if a QSI is able to inhibit the other two QS systems (i.e. rhl and pqs) in a lasR-dependent/independent manner (FIG. 8).

pqsA-gfp(ASV) expression = assay: Inhibition of the PQS QS system, pqsA-gfp(ASV) reporter in PAO1 wild-type and lasR mutant; assay type: cell-based, P. aeruginosa
Description: as §1, §2

protease IV = conditions: cited from earlier work
elastase (lasB; PA3724) = conditions: cited from earlier work

Compound | effect on cell growth [1] | inhibition of LasR-controlled GFP expression [1] | reduction of expression of elastase (elastase (lasB; PA3724)) [fold] | also measured
NC(Cc1cccc(F)c1)C(=O)O (racemic) [Compound F1, 2-amino-3-(3-fluorophenyl)propanoic acid] | without affecting cell growth | inhibit LasR-controlled GFP expression in a dose-dependent manner |  | inhibition of rhlA-gfp expression (rhlA-gfp(ASV) expression; PAO1 lasR mutant, 50 μM QSI): 63.1%; inhibition of rhlA-gfp expression (rhlA-gfp(ASV) expression; wild-type PAO1, 50 μM QSI): 61.7%; inhibition of pqsA-gfp expression (pqsA-gfp(ASV) expression; PAO1 lasR mutant, 50 μM QSI): 39.4%; inhibition of pqsA-gfp expression (pqsA-gfp(ASV) expression; wild-type PAO1, 50 μM QSI): 25.4%
NC(C(=O)O)C(O)c1ccccc1 (racemic) [Compound H1, 2-amino-3-hydroxy-3-phenylpropanoic acid] | without affecting cell growth | inhibit LasR-controlled GFP expression in a dose-dependent manner |  | 
O=[N+]([O-])c1cc[n+]([O-])cc1 [Compound 4-NPO, 4-nitropyridine-N-oxide] |  |  | −22.6 | reduction of expression of protease IV (protease IV): −20.7 fold
O=c1[nH]cnc2[nH]nnc12 [Compound C1, 6-hydro-3H-1,2,3-triazolo[5,4-d]pyrimidin-7-one] | without affecting cell growth | inhibit LasR-controlled GFP expression in a dose-dependent manner |  | IC50 of lasB-gfp expression, range in words ([1]; P. aeruginosa PAO1 lasB-gfp(ASV)): high nanomolar range
O=C1C=C2C(=CCOC2O)O1 (stereo not drawn) [patulin] |  |  | −7 | 
C=C(C)C(=O)C(=CC(=O)O)OC [penicillic acid] |  |  | −12 | 
